Several values for one entry are separate records, joined by “and”; a condition that tells them apart may be missing. Equal values may be shown once. Read-outs that look alike come from different tables or passages of the source.
Experiments:
[1] = biological target: mouse AChR β-subunit D97A (Mus musculus, UniProt P02716+P04756+P09690+P20782, D120A); conditions: 20 mM choline
[2] = biological target: mouse AChR ɛ-subunit D97A (Mus musculus, UniProt P02716+P04756+P20782, D117A); conditions: 20 mM choline
mouse AChR αD97R = mouse AChR αD97R (Mus musculus, UniProt P02716+P04756+P20782, D117R)
mouse AChR αD97N = mouse AChR αD97N (Mus musculus, UniProt P02716+P04756+P20782, D117N)
mouse AChR αD97Q = mouse AChR αD97Q (Mus musculus, UniProt P02716+P04756+P20782, D117Q)
mouse AChR αD97F = mouse AChR αD97F (Mus musculus, UniProt P02716+P04756+P20782, D117F)
mouse AChR αD97P = mouse AChR αD97P (Mus musculus, UniProt P02716+P04756+P20782, D117P); conditions: for α2 (diliganded channel closing rate constant): 0.4 mM choline; for β2 (diliganded channel opening rate constant): 20 mM choline; for L2 (diliganded gating equilibrium constant, β2/α2) / L2-ratio (mut/wt): choline
mouse AChR αD97M = mouse AChR αD97M (Mus musculus, UniProt P02716+P04756+P20782, D117M)
[3] = tested on: hybrid AChR (one wild-type α-subunit and one D97A α-subunit), hybrid 1; conditions: 20 mM choline
mouse AChR αD97I = mouse AChR αD97I (Mus musculus, UniProt P02716+P04756+P20782, D117I)
mouse AChR αD97E = mouse AChR αD97E (Mus musculus, UniProt P02716+P04756+P20782, D117E); conditions: for L2: kinetic modeling
mouse AChR αD97G = mouse AChR αD97G (Mus musculus, UniProt P02716+P04756+P20782, D117G); conditions: for β2 (diliganded channel opening rate constant): 20 mM choline
[4] = biological target: mouse AChR δ-subunit D99A (Mus musculus, UniProt P02716+P04756+P20782, D123A); conditions: 20 mM choline
[5] = biological target: wild-type mouse AChR (α2βδɛ) (Mus musculus, UniProt P02716+P04756+P20782); conditions: wt; for L2: choline (Table III / text)
mouse AChR αD97V = mouse AChR αD97V (Mus musculus, UniProt P02716+P04756+P20782, D117V)
[6] = tested on: hybrid AChR (one wild-type α-subunit and one D97A α-subunit), hybrid 2; conditions: 20 mM choline
[7] = biological target: mouse AChR β-subunit G98A (Mus musculus, UniProt P02716+P04756+P09690+P20782, G121A); conditions: 20 mM choline
mouse AChR αD97A = mouse AChR αD97A (Mus musculus, UniProt P02716+P04756+P20782, D117A)
[8] = biological target: mouse AChR β-subunit D97V (Mus musculus, UniProt P02716+P04756+P09690+P20782, D120V); conditions: 20 mM choline
[9] = biological target: mouse AChR β-subunit G98V (Mus musculus, UniProt P02716+P04756+P09690+P20782, G121V); conditions: 20 mM choline
[10] = joint fit choline 1, 2 and 5 mM, Scheme I

Chain of mouse AChR αD97E (P04756 21-457 D117E): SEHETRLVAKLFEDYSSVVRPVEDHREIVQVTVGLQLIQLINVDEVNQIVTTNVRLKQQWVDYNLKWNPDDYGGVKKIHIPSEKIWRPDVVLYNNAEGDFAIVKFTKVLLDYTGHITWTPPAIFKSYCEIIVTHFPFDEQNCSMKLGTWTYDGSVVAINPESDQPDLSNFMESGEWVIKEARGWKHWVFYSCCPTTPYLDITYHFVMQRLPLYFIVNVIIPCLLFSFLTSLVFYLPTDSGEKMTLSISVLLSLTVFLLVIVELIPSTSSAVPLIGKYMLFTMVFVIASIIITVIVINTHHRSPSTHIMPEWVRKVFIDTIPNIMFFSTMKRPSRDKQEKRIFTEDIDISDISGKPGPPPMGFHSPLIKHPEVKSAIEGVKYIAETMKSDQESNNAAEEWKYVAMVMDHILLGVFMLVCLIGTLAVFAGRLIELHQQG
Chain of mouse AChR αD97E (P09690 24-501 partner): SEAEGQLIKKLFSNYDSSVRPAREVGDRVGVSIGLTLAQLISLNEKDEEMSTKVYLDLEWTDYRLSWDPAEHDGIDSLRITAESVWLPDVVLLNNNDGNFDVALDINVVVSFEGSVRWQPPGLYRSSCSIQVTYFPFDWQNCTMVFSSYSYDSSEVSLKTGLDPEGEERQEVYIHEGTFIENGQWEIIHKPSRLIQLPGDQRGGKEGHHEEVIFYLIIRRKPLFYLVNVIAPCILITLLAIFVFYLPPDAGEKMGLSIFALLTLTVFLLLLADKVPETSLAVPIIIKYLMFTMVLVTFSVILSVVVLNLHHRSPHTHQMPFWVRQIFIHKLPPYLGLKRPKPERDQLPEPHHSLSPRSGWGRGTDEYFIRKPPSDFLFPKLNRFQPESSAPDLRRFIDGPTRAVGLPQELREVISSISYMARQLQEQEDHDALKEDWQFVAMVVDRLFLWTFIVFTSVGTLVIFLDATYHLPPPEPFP
Chain of mouse AChR αD97E (P02716 25-520): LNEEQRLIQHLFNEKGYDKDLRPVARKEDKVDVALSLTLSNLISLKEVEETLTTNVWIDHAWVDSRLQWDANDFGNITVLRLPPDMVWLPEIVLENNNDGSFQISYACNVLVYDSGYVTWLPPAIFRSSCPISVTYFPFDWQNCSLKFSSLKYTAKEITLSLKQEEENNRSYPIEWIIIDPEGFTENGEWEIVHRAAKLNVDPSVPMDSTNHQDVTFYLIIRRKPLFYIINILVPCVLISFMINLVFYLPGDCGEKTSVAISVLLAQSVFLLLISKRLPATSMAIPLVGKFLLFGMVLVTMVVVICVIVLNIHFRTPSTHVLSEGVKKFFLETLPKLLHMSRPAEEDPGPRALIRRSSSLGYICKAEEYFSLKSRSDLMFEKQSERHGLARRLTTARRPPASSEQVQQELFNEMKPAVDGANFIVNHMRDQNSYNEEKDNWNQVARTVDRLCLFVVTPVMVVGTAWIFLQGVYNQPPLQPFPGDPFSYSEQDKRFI
Chain of mouse AChR αD97E (P20782 21-493, stated change not applied): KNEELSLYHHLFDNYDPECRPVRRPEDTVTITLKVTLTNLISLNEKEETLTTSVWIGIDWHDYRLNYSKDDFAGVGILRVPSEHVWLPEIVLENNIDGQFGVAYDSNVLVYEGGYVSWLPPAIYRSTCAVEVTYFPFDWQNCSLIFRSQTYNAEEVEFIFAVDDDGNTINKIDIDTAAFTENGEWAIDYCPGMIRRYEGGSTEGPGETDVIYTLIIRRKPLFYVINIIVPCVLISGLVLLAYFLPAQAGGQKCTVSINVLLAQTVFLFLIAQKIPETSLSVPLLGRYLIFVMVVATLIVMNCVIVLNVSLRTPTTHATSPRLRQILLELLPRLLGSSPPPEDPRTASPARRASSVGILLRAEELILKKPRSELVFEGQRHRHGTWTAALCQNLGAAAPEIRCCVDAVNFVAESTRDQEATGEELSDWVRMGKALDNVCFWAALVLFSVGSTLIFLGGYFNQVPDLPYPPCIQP
Chain of mouse AChR αD97P (P04756 21-457 D117P): as the sequence (P04756 21-457 D117E) above, with E97P counted along it
Chain of mouse AChR αD97P (P09690 24-501 partner): as the sequence (P09690 24-501 partner) above
Chain of mouse AChR αD97P (P02716 25-520): as the sequence (P02716 25-520) above
Chain of mouse AChR αD97P (P20782 21-493, stated change not applied): as the sequence (P20782 21-493, stated change not applied) above

C[N+](C)(C)CCO [choline]
α2* (apparent channel closing rate constant) [1]: 1,320 s^−1 | β2 (channel opening rate constant) [1]: 72 s⁻¹ | α2* (apparent channel closing rate constant) [2]: 645 s⁻¹ | β2 (channel opening rate constant) [2]: 64 s⁻¹ | α2 (diliganded channel closing rate constant) (mouse AChR αD97R; 0.4 mM choline): 1,653 s^−1 | β2 (diliganded channel opening rate constant) (mouse AChR αD97R; 20 mM choline): 10,951 s^−1 | L2 (diliganded gating equilibrium constant, β2/α2) (mouse AChR αD97R; choline): 6.624 | L2-ratio (mut/wt) (mouse AChR αD97R; choline): 139.12 | α2 (diliganded channel closing rate constant) (mouse AChR αD97N; 0.4 mM choline): 2,379 s^−1 | β2 (diliganded channel opening rate constant) (mouse AChR αD97N; 20 mM choline): 268 s⁻¹ | L2 (diliganded gating equilibrium constant, β2/α2) (mouse AChR αD97N; choline): 0.113 | L2-ratio (mut/wt) (mouse AChR αD97N; choline): 2.37 | α2 (diliganded channel closing rate constant) (mouse AChR αD97Q; 0.4 mM choline): 2,016 s^−1 | β2 (diliganded channel opening rate constant) (mouse AChR αD97Q; 20 mM choline): 6,006 s^−1 | L2 (diliganded gating equilibrium constant, β2/α2) (mouse AChR αD97Q; choline): 2.979 | L2-ratio (mut/wt) (mouse AChR αD97Q; choline): 62.56 | α2 (diliganded channel closing rate constant) (mouse AChR αD97F; 0.4 mM choline): 1,831 s^−1 | β2 (diliganded channel opening rate constant) (mouse AChR αD97F; 20 mM choline): 2,748 s^−1 | L2 (diliganded gating equilibrium constant, β2/α2) (mouse AChR αD97F; choline): 1.501 | L2-ratio (mut/wt) (mouse AChR αD97F; choline): 31.52 | α2 (diliganded channel closing rate constant) (mouse AChR αD97P; αD97P kinetic mode P1): 2,276 s^−1 | β2 (diliganded channel opening rate constant) (mouse AChR αD97P; αD97P kinetic mode P1): 322 s⁻¹ | L2 (diliganded gating equilibrium constant, β2/α2) (mouse AChR αD97P; αD97P kinetic mode P1): 0.141 | L2-ratio (mut/wt) (mouse AChR αD97P; αD97P kinetic mode P1): 2.97 | α2 (diliganded channel closing rate constant) (mouse AChR αD97P; αD97P kinetic mode P2): 2,276 s^−1 | β2 (diliganded channel opening rate constant) (mouse AChR αD97P; αD97P kinetic mode P2): 1,396 s^−1 | L2 (diliganded gating equilibrium constant, β2/α2) (mouse AChR αD97P; αD97P kinetic mode P2): 0.613 | L2-ratio (mut/wt) (mouse AChR αD97P; αD97P kinetic mode P2): 12.88 | α2 (diliganded channel closing rate constant) (mouse AChR αD97M; 0.4 mM choline): 2,255 s^−1 | β2 (diliganded channel opening rate constant) (mouse AChR αD97M; 20 mM choline): 835 s⁻¹ | L2 (diliganded gating equilibrium constant, β2/α2) (mouse AChR αD97M; choline): 0.370 | L2-ratio (mut/wt) (mouse AChR αD97M; choline): 7.78 | ΔΔG0 for channel gating, 0.59 ln(L2^wt/L2^mut) [3]: 1.96 kcal mol^−1 | α2 (diliganded channel closing rate constant) (mouse AChR αD97I; 0.4 mM choline): 2,801 s^−1 | β2 (diliganded channel opening rate constant) (mouse AChR αD97I; 20 mM choline): 60 s⁻¹ | L2 (diliganded gating equilibrium constant, β2/α2) (mouse AChR αD97I; choline): 0.022 | L2-ratio (mut/wt) (mouse AChR αD97I; choline): 0.45 | α2 (diliganded channel closing rate constant) (mouse AChR αD97E; 0.4 mM choline): 2,076 s^−1 | β2 (diliganded channel opening rate constant) (mouse AChR αD97E; 20 mM choline): 2,967 s^−1 | L2 (diliganded gating equilibrium constant, β2/α2) (mouse AChR αD97E; choline): 1.429 | β2 from saturation of the effective opening rate (mouse AChR αD97E; choline, fit by Eq. 1): 2,875 s^−1 | L2 (equilibrium gating constant) from Popen dose–response analysis (mouse AChR αD97E; choline, fit by Eq. 2): 2.9 ± 0.7 and 2.9 | L2 (mouse AChR αD97E; choline, Scheme I): 1.3 ± 0.2 | L2 (mouse AChR αD97E; choline, Scheme I, listed as Choline): 1.31 ± 0.21 | α2 (mouse AChR αD97E; [10]): 2,293 ± 214 s^−1 | β2 (mouse AChR αD97E; [10]): 3,024 ± 131 s^−1 | α2 (diliganded channel closing rate constant) (mouse AChR αD97G; αD97G kinetic mode G1, 0.4 mM choline): 2,105 s^−1 | β2 (diliganded channel opening rate constant) (mouse AChR αD97G; αD97G kinetic mode G1): 421 s⁻¹ | L2 (diliganded gating equilibrium constant, β2/α2) (mouse AChR αD97G; αD97G kinetic mode G1, choline): 0.200 | L2-ratio (mut/wt) (mouse AChR αD97G; αD97G kinetic mode G1, choline): 4.20 | β2 (diliganded channel opening rate constant) (mouse AChR αD97G; αD97G kinetic mode G2): 570 s⁻¹ | L2 (diliganded gating equilibrium constant, β2/α2) (mouse AChR αD97G; αD97G kinetic mode G2, choline): 0.605 | α2* (apparent channel closing rate constant) [4]: 630 s⁻¹ | β2 (channel opening rate constant) [4]: 146 s⁻¹ | α2 (diliganded channel closing rate constant) ([5]; 0.4 mM choline): 2,100 s^−1 | β2 (diliganded channel opening rate constant) ([5]; 20 mM choline): 100 s⁻¹ | β2 (channel opening rate constant) ([5]; 20 mM choline (Table VIII)): 100 s⁻¹ | α2* (apparent channel closing rate constant) ([5]; 20 mM choline, ∼2-fold smaller than α2 because of channel block): 1,100 s^−1 | L2 (diliganded gating equilibrium constant, β2/α2) ([5]; choline): 0.048 | β2 ([5]; choline (Table III / Fig. 4)): 100 s⁻¹ | L2 [5]: 0.05 | L2 ([5]; listed as Choline): 0.047 | α2 ([5]; choline (Table III)): 2,100 s^−1 | α2 (diliganded channel closing rate constant) (mouse AChR αD97V; 0.4 mM choline): 1,974 s^−1 | β2 (diliganded channel opening rate constant) (mouse AChR αD97V; 20 mM choline): 161 s⁻¹ | L2 (diliganded gating equilibrium constant, β2/α2) (mouse AChR αD97V; choline): 0.082 | L2-ratio (mut/wt) (mouse AChR αD97V; choline): 1.71 | ΔΔG0 for channel gating, 0.59 ln(L2^wt/L2^mut) [6]: 0.95 kcal mol^−1 | α2* (apparent channel closing rate constant) [7]: 861 s⁻¹ | β2 (channel opening rate constant) [7]: 49 s⁻¹ | ΔΔG0 for channel gating, 0.59 ln(L2^wt/L2^mut) (mouse AChR αD97A; double αD97A mutant, 20 mM choline): 3.09 kcal mol^−1 | α2 (diliganded channel closing rate constant) (mouse AChR αD97A; αD97A, 0.4 mM choline): 1,719 s^−1 | β2 (diliganded channel opening rate constant) (mouse AChR αD97A; αD97A, 20 mM choline): 13,793 s^−1 | L2 (diliganded gating equilibrium constant, β2/α2) (mouse AChR αD97A; αD97A, choline): 8.023 | L2-ratio (mut/wt) (mouse AChR αD97A; αD97A, choline): 168 | L2-ratio (mut/wt) (mouse AChR αD97A; αD97A, choline, listed as Choline): 168.50 | α2* (apparent channel closing rate constant) [8]: 762 s⁻¹ | β2 (channel opening rate constant) [8]: 85 s⁻¹ | α2* (apparent channel closing rate constant) [9]: 471 s⁻¹ | β2 (channel opening rate constant) [9]: 80 s⁻¹
